Experimental data published in ChEMBL document CHEMBL6092180 (Eur J Med Chem, 2024).
In brackets after ≈: the same amount, converted by molar mass. Activity calls are given as the source filed them. No cut-off for these calls is given here.

Assays:
[1] = Half-life in Sprague-Dawley rat at 3 mg/kg, iv by LC-MS/MS analysis; type: ADME, organism-based; conditions: in vivo
[2] = Half-life in Sprague-Dawley rat at 10 mg/kg, po by LC-MS/MS analysis; type: ADME, organism-based; conditions: in vivo
Candida albicans [3] = assay: Antibiofilm activity against fluconazole-resistant Candida albicans CPCC400616 assessed as inhibition of metabolic activity of biofilm measured after 6 hrs by XTT reduction assay; type: functional
Candida albicans [4] = assay: Fungicidal activity fluconazole and iodiconazole resistant Candida albicans clinical isolate 17# assessed as decrease in number of fungi at 1 times of MIC measured within 24 hrs by time-kill kinetics assay; type: functional, organism-based
[5] = Metabolic stability in human liver microsomes assessed as half-life preincubated for 10 mins followed by NADPH addition and measured after 60 mins by LC-MS/MS analysis; type: ADME, Microsome; conditions: time 70 min
[6] = Cmax in Sprague-Dawley rat at 10 mg/kg, po by LC-MS/MS analysis; type: ADME, organism-based; conditions: in vivo
[7] = Clearance in Sprague-Dawley rat at 3 mg/kg, iv by LC-MS/MS analysis; type: ADME, organism-based; conditions: in vivo
Candida albicans [8] = assay: Antifungal activity against fluconazole-resistant Candida albicans clinical isolate 103 assessed as inhibition of fungal growth by CLSI M27-A3 guidelines based method; type: functional
Candida albicans [9] = assay: Antifungal activity against fluconazole-resistant Candida albicans clinical isolate 904 assessed as inhibition of fungal growth by CLSI M27-A3 guidelines based method; type: functional
[10] = AUC (0 to infinity) in Sprague-Dawley rat at 3 mg/kg, iv by LC-MS/MS analysis; type: ADME, organism-based; conditions: in vivo
Candida albicans [11] = assay: Antifungal activity against Candida albicans SC5314 assessed as inhibition of fungal growth by CLSI M27-A3 guidelines based method; type: functional
Pichia kudriavzevii = assay: Antifungal activity against Candida krusei GIM 2.1 assessed as inhibition of fungal growth by CLSI M27-A3 guidelines based method; type: functional
Candida albicans [12] = assay: Effect on sterol composition in Candida albicans SC5314 assessed as lanosterol content at 0.05 microg/ml measured after 16 hrs by GC-MS analysis relative to control; type: functional; conditions: dose 0.05 µg/ml
Nakaseomyces glabratus = assay: Antifungal activity against Candida glabrata assessed as inhibition of fungal growth by CLSI M27-A3 guidelines based method; type: functional
[13] = Cytotoxicity against HUVEC cells assessed as inhibition of cell growth incubated for 72 hrs by MTT assay; type: toxicity, cell-based; conditions: human
Candida albicans [14] = assay: Effect on sterol composition in Candida albicans SC5314 assessed as ergosterol content at 0.05 microg/ml measured after 16 hrs by GC-MS analysis (reference value: 96.96 %); type: functional; conditions: dose 0.05 µg/ml
Candida albicans [15] = assay: Effect on sterol composition in Candida albicans SC5314 assessed as 14alpha-demethyllanosterol content at 0.05 microg/ml measured after 16 hrs by GC-MS analysis (reference value: […] %); type: functional; conditions: dose 0.05 µg/ml
[16] = MRT(0 to t) in Sprague-Dawley rat at 3 mg/kg, iv by LC-MS/MS analysis; type: ADME, organism-based; conditions: in vivo
Cryptococcus neoformans = assay: Antifungal activity against Cryptococcus neoformans CGMCC 2.3161 assessed as inhibition of fungal growth by CLSI M27-A3 guidelines based method; type: functional
Candida albicans [17] = assay: Antifungal activity against fluconazole-resistant Candida albicans clinical isolate 901 assessed as inhibition of fungal growth by CLSI M27-A3 guidelines based method; type: functional
Candida albicans [18] = assay: Antifungal activity against Candida albicans GIM 2.194 assessed as inhibition of fungal growth by CLSI M27-A3 guidelines based method; type: functional
Candida albicans [19] = assay: Fungicidal activity fluconazole and iodiconazole resistant Candida albicans clinical isolate 17# assessed as decrease in number of fungi at 4 times of MIC measured within 24 hrs by time-kill kinetics assay; type: functional, organism-based
Candida albicans [20] = assay: Inhibition of hyphal formation in fluconazole-resistant Candida albicans CPCC400616 assessed as reduction in invasive ability at 2 microg/ml measured after 4 hrs by inverted microscopic analysis; type: functional, organism-based; conditions: dose 2.0 µg/ml
[21] = Cytotoxicity against human NCI-H460 cells assessed as inhibition of cell growth incubated for 72 hrs by MTT assay; type: toxicity, cell-based
[22] = Tmax in Sprague-Dawley rat at 3 mg/kg, iv by LC-MS/MS analysis; type: ADME, organism-based; conditions: in vivo
[23] = Cytotoxicity against HEK293T cells assessed as inhibition of cell growth incubated for 72 hrs by MTT assay; type: toxicity, cell-based, HEK-293T; conditions: human
Candida albicans [24] = assay: Antifungal activity against fluconazole-resistant Candida albicans clinical isolate 632 assessed as inhibition of fungal growth by CLSI M27-A3 guidelines based method; type: functional
Candida albicans [25] = assay: Effect on sterol composition in Candida albicans SC5314 assessed as eburicol content at 0.05 microg/ml measured after 16 hrs by GC-MS analysis relative to control; type: functional; conditions: dose 0.05 µg/ml
Candida parapsilosis = assay: Antifungal activity against Candida parapsilosis GIM 2.190 assessed as inhibition of fungal growth by CLSI M27-A3 guidelines based method; type: functional; conditions: Lodderomyces parapsilosis
[26] = Tmax in Sprague-Dawley rat at 10 mg/kg, po by LC-MS/MS analysis; type: ADME, organism-based; conditions: in vivo
Candida albicans [27] = assay: Fungicidal activity fluconazole and iodiconazole resistant Candida albicans clinical isolate 17# assessed as decrease in number of fungi at 2 times of MIC measured within 24 hrs by time-kill kinetics assay; type: functional, organism-based
Candida albicans [28] = assay: Antibiofilm activity against fluconazole-resistant Candida albicans CPCC400616 assessed as inhibition of metabolic activity of biofilm measured after 24 hrs by XTT reduction assay; type: functional
Candida albicans [29] = assay: Effect on sterol composition in Candida albicans SC5314 assessed as obtusifoliol content at 0.05 microg/ml measured after 16 hrs by GC-MS analysis relative to control; type: functional; conditions: dose 0.05 µg/ml
[30] = Apparent volume of distribution in Sprague-Dawley rat at 3 mg/kg, iv by LC-MS/MS analysis; type: ADME, organism-based; conditions: in vivo, read-out: Vz
Candida tropicalis = assay: Antifungal activity against Candida tropicalis GIM 2.183 assessed as inhibition of fungal growth by CLSI M27-A3 guidelines based method; type: functional
[31] = AUC (0 to infinity) in Sprague-Dawley rat at 10 mg/kg, po by LC-MS/MS analysis; type: ADME, organism-based; conditions: in vivo
Candida albicans [32] = assay: Fungicidal activity against Candida albicans SC5314 incubated for 48 hrs by PDA plate based method; type: functional
Candida albicans [33] = assay: Antifungal activity against fluconazole-resistant Candida albicans clinical isolate 100 assessed as inhibition of fungal growth by CLSI M27-A3 guidelines based method; type: functional
[34] = Cytotoxicity against human OVCAR-3 cells assessed as inhibition of cell growth incubated for 72 hrs by MTT assay; type: toxicity, cell-based
Aspergillus fumigatus = assay: Antifungal activity against Aspergillus fumigatus cgmcc 3.7795 assessed as inhibition of fungal growth by CLSI M27-A3 guidelines based method; type: functional
Candida albicans [35] = assay: Antifungal activity against fluconazole and iodiconazole resistant Candida albicans clinical isolate 17# assessed as inhibition of fungal growth by CLSI M27-A3 guidelines based method; type: functional
Candida albicans [36] = assay: Antifungal activity against fluconazole-resistant Candida albicans clinical isolate 311 assessed as inhibition of fungal growth by CLSI M27-A3 guidelines based method; type: functional
Candida albicans [37] = assay: Fungicidal activity against fluconazole and iodiconazole resistant Candida albicans clinical isolate 17# incubated for 48 hrs by PDA plate based method; type: functional
Candida albicans [38] = assay: Effect on sterol composition in Candida albicans SC5314 assessed as other sterols content at 0.05 microg/ml measured after 16 hrs by GC-MS analysis (reference value: 1.06 %); type: functional; conditions: dose 0.05 µg/ml
[39] = Cmax in Sprague-Dawley rat at 3 mg/kg, iv by LC-MS/MS analysis; type: ADME, organism-based; conditions: in vivo
[40] = Oral bioavailability in Sprague-Dawley rat at 10 mg/kg by LC-MS/MS analysis; type: ADME, organism-based; conditions: in vivo
Candida albicans [41] = assay: Antifungal activity against fluconazole-resistant Candida albicans CaR assessed as inhibition of fungal growth by CLSI M27-A3 guidelines based method; type: functional
[42] = Metabolic stability in human liver microsomes assessed as parent compound remaining preincubated for 10 mins followed by NADPH addition and measured after 60 mins by LC-MS/MS analysis; type: ADME, Microsome; conditions: time 70 min, read-out: Stability

C[C@@H](N(C)Cc1ccc(C#Cc2ccc(F)cc2F)cc1)[C@](O)(Cn1cncn1)c1ccc(F)cc1F
half-life [1]: 6.57 h
half-life [2]: 4.08 h
MIC50 (Candida albicans [3]): 0.5 µg/mL (≈ 0.983 µM)
Activity (Candida albicans [4]): Active
half-life [5]: 0.503 h
Cmax [6]: 283 ng/mL
clearance [7]: 27.5 mL/min/kg
MIC80 (Candida albicans [8]): 4 µg/mL (≈ 7.87 µM)
MIC80 (Candida albicans [9]): 8 µg/mL (≈ 15.7 µM)
AUC(0-inf) [10]: 1830 ng·h/mL
MIC80 (Candida albicans [11]): 0.006 µg/mL (≈ 0.0118 µM)
MIC80 (Pichia kudriavzevii): 0.01 µg/mL (≈ 0.0197 µM)
Activity (Candida albicans [12]): 9.97%
MIC80 (Nakaseomyces glabratus): 0.01 µg/mL (≈ 0.0197 µM)
IC50 at 72 h [13]: > 10 µM
Activity (Candida albicans [14]): 0.29%
Activity (Candida albicans [15]): 2.79%
MRT last [16]: 1.92 h
MIC80 (Cryptococcus neoformans): 0.013 µg/mL (≈ 0.0256 µM)
MIC80 (Candida albicans [17]): 4 µg/mL (≈ 7.87 µM)
MIC80 (Candida albicans [18]): 0.006 µg/mL (≈ 0.0118 µM)
Activity (Candida albicans [19]): Active; Effectively Kills Fungal Cells In Viable Colony Counts
inhibition (Candida albicans [20]): Active; Blockade Of Morphological Transformation Observed
IC50 at 72 h [21]: > 10 µM
Tmax [22]: 4.98 min
IC50 at 72 h [23]: > 10 µM
MIC80 (Candida albicans [24]): 4 µg/mL (≈ 7.87 µM)
Activity (Candida albicans [25]): 70.13%
MIC80 (Candida parapsilosis): 0.006 µg/mL (≈ 0.0118 µM)
Tmax [26]: 2.33 h
Activity (Candida albicans [27]): Active
MIC50 (Candida albicans [28]): 4 µg/mL (≈ 7.87 µM)
Activity (Candida albicans [29]): 13.69%
Vd [30]: 15.7 L/kg
MIC80 (Candida tropicalis): 0.006 µg/mL (≈ 0.0118 µM)
AUC(0-inf) [31]: 1600 ng·h/mL
MFC (Candida albicans [32]): 0.125 µg/mL (≈ 0.246 µM)
MIC80 (Candida albicans [33]): 4 µg/mL (≈ 7.87 µM)
IC50 at 72 h [34]: > 10 µM
MIC80 (Aspergillus fumigatus): 0.05 µg/mL (≈ 0.0983 µM)
MIC80 (Candida albicans [35]): 0.25 µg/mL (≈ 0.492 µM)
MIC80 (Candida albicans [36]): 8 µg/mL (≈ 15.7 µM)
MFC (Candida albicans [37]): 1 µg/mL (≈ 1.97 µM)
Activity (Candida albicans [38]): 3.13%
Cmax [39]: 2460 ng/mL
bioavailability [40]: 26.3%
MIC80 (Candida albicans [41]): 0.25 µg/mL (≈ 0.492 µM)
remaining at 1 h [42]: 25.9%
